Source: ChEMBL document CHEMBL1135889, “Novel 4-anilinoquinazolines with C-7 basic side chains: design and structure activity relationship of a series of potent, orally active, VEGF receptor tyrosine kinase inhibitors” (J Med Chem, 2002)
In brackets after ≈: the same amount, converted by molar mass.

Key:
[1] = target: Vascular endothelial growth factor receptor 2 (Homo sapiens, UniProt P35968); assay: Inhibition of vascular endothelial growth factor receptor 2 kinase activity […]
[2] = target: Fibroblast growth factor receptor 1 (Homo sapiens, UniProt P11362)
Fibroblast growth factor receptor 1, sequence (P11362 whole entry): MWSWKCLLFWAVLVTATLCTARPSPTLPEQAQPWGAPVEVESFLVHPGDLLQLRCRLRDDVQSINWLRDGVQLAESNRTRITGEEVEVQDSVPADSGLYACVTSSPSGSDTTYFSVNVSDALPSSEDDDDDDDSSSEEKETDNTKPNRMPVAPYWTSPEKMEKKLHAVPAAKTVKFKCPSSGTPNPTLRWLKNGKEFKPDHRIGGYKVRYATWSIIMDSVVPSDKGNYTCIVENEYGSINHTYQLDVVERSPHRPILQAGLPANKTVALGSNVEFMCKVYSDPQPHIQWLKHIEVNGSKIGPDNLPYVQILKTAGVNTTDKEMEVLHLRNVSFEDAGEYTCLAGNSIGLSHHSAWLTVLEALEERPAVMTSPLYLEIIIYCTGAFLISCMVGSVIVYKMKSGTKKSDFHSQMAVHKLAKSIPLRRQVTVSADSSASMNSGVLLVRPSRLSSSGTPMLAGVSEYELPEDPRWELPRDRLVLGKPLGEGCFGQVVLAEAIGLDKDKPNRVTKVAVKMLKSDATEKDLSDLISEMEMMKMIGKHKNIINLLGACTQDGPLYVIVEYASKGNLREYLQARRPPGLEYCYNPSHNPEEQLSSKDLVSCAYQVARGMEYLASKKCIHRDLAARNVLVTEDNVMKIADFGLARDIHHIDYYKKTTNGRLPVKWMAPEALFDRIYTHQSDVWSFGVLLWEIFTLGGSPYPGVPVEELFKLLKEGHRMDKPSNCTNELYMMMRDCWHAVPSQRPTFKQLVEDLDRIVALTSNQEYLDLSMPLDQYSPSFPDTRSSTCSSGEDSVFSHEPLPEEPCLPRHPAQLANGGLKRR
Description: Inhibition fibroblast growth factor receptor TK kinase activity at a concentration of 2 uM

[3] = target: Vascular endothelial growth factor receptor 1 (Homo sapiens, UniProt P17948); assay: Inhibition of fms-like tyrosine kinase receptor (Flt-1) kinase activity […] of ATP
Vascular endothelial growth factor receptor 1, sequence (P17948 whole entry): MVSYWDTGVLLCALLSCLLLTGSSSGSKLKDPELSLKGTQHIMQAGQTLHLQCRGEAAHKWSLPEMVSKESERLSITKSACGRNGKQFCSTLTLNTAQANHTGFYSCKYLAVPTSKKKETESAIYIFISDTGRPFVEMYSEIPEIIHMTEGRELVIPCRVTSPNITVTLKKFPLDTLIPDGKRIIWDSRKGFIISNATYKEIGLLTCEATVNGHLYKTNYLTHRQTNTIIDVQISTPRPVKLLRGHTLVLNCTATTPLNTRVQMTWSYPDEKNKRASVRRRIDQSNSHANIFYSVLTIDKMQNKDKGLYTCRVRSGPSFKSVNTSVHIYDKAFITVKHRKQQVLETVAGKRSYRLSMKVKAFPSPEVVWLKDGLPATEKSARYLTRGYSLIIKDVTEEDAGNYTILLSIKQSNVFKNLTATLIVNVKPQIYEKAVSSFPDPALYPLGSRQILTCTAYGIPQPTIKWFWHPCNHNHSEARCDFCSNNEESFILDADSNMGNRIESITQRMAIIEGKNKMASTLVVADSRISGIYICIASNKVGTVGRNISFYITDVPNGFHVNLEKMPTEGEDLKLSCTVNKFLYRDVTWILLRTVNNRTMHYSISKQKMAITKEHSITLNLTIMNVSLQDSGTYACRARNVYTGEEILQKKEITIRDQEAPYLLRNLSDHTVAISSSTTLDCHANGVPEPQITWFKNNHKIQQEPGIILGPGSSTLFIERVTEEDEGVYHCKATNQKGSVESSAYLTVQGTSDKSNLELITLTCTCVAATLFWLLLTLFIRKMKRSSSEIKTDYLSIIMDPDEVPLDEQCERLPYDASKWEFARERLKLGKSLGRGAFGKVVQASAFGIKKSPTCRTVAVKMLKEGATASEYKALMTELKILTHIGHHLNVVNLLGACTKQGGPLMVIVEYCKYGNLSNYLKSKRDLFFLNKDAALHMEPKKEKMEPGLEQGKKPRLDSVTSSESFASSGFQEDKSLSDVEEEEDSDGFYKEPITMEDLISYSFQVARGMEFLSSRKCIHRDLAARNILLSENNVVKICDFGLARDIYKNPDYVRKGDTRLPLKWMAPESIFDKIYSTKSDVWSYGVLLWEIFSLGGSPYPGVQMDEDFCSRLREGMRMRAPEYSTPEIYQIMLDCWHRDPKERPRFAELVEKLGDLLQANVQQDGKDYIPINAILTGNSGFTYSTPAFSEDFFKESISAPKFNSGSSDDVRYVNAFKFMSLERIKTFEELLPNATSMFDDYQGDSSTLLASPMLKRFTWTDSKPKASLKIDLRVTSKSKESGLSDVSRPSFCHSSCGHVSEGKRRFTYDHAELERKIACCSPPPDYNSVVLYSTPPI

[4] = target: Vascular endothelial growth factor receptor (Homo sapiens, UniProt P17948+P35916+P35968); assay: Inhibition of human endothelial cell growth stimulate by vascular endothelial growth factor
HUVEC = assay: Inhibition of basal unstimulated growth of human endothelial cell; assay type: functional, cell-based
[5] = target: Epidermal growth factor receptor (Homo sapiens, UniProt P00533); assay: Inhibition of epidermal growth factor receptor kinase activity […] of ATP
Epidermal growth factor receptor, sequence (P00533 whole entry): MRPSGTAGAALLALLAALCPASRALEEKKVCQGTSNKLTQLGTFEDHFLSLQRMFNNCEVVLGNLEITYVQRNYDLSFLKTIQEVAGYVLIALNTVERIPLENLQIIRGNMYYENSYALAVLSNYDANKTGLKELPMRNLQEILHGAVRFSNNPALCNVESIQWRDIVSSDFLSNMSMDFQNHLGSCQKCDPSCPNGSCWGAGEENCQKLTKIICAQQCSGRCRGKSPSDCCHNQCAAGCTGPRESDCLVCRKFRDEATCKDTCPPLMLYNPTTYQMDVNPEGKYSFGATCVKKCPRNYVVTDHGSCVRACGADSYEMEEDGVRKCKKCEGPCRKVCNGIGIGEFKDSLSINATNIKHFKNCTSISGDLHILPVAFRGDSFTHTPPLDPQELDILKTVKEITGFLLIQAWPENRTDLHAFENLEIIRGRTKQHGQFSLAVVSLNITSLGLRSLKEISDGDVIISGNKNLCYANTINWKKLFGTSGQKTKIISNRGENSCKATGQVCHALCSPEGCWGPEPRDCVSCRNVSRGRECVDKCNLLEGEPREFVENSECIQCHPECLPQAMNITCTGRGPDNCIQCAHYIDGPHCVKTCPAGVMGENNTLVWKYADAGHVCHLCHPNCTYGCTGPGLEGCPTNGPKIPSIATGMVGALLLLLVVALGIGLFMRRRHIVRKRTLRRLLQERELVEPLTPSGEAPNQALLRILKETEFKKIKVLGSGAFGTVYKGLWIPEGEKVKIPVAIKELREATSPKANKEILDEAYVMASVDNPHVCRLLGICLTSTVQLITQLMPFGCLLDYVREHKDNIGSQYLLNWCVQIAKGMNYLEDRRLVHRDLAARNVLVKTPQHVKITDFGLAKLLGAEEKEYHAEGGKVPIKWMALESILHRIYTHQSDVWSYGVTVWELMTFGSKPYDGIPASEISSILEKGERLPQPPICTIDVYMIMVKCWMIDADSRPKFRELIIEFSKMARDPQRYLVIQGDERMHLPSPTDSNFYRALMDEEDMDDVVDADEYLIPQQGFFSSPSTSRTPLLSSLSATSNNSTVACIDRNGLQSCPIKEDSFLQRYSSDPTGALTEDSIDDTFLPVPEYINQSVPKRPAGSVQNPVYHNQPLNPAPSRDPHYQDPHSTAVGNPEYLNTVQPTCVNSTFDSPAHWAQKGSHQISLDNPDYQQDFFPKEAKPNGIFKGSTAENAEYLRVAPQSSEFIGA

[6] = Plasma levels following administration of 100 mg/Kg perorally and concentration in plasma 24 hr after administration; assay type: ADME, cell-free; details: po, read-out: Plasma level
[7] = Plasma levels following administration of 100 mg/Kg perorally and concentration in plasma 6 hr after administration; assay type: ADME, cell-free; details: po, read-out: Plasma level
[8] = Plasma levels following administration of 50 mg/Kg perorally and concentration in plasma 6 hr after administration; assay type: ADME, cell-free; details: po, read-out: Plasma level
[9] = Plasma levels following administration of 50 mg/Kg perorally and concentration in plasma 24 hr after administration; assay type: ADME, cell-free; details: po, read-out: Plasma level
Rattus norvegicus = organism: Rattus norvegicus; assay: (§1) Binding affinity to serum protein in rat; assay type: functional
Mus musculus = organism: Mus musculus; assay: (§2) Binding affinity of serum protein in mouse.; assay type: functional, organism-based
[10] = solubility was determined using free base at pH 7; assay type: physicochemical; details: buffer
physchem [11] = details: octanol/water, pH 7.4
[12] = pKa value at a pH of […].value ranges from […]-[…].; assay type: physicochemical; details: pH 7.4
physchem [13] = details: pH 7.4
[14] = Pharmacokinetic parameter bioavailability in dog was reported after oral administration of 30 mg/Kg measured on free base; details: in vivo
[15] = target: T1, 3-phosphoinositide-dependent protein kinase 1 (Homo sapiens, UniProt O15530); assay: Inhibition of receptor kinase activity against PDK (phospho-inositide dependent kinase) at ATP <Km
T1 sequence (O15530 whole entry): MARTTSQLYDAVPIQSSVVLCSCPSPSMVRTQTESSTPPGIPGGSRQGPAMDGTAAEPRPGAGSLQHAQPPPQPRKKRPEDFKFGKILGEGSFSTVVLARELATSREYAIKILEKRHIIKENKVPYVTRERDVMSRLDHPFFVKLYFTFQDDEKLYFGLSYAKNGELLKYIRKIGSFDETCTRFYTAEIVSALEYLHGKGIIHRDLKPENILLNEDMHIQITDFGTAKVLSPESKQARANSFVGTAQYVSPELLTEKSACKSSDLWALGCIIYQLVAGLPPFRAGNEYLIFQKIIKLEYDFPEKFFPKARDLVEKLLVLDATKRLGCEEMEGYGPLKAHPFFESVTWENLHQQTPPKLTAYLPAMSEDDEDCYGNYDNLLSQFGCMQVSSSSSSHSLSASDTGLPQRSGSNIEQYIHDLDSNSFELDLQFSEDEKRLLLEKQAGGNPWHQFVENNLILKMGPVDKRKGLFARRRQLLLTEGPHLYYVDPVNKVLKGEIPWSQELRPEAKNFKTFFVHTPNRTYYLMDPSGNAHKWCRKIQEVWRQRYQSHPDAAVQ

[16] = as §2; assay type: ADME, organism-based; details: read-out: %Bound_Plasma (converted)
[17] = target: Serine/threonine-protein kinase AKT (Homo sapiens, UniProt P31751+Q9Y243+P31749); assay: Inhibition of Protein kinase B (AKT) at ATP <Km; assay type: protein assay
[18] = target: Cyclin-dependent kinase 2 (Homo sapiens, UniProt P24941); assay: Inhibition of Cyclin-dependent kinase 2 (CDK2) at ATP concentration <Km
[19] = Pharmacokinetic parameter half-life in dog was reported after intravenous administration of 5 mg/Kg measured on free base; details: in vivo
[20] = as §1; assay type: ADME, organism-based; details: read-out: %Bound_Plasma (converted)
[21] = pKa value at a pH of […].; assay type: physicochemical; details: pH 7.4
[22] = Pharmacokinetic parameter half-life in rat was reported after intravenous administration of 5 mg/Kg measured on free base; details: in vivo
Angiopoietin-1 receptor = Angiopoietin-1 receptor (Homo sapiens, UniProt Q02763); assay: Inhibition of Tyrosine protein kinase TIE-2 at ATP <Km
[23] = target: Receptor tyrosine-protein kinase erbB-2 (Homo sapiens, UniProt P04626); assay: Inhibition of ERBB2 receptor kinase at ATP concentration <Km
[24] = Plasma levels following administration of 50 mg/Kg perorally and concentration of compound in plasma 24 hr after administration; assay type: ADME, cell-free; details: po, read-out: Plasma level
[25] = target: Dual specificity mitogen-activated protein kinase kinase; MEK1/2 (Homo sapiens, UniProt P36507+Q02750); assay: Inhibition of Mitogen activated protein kinase (MEK) at ATP <Km; assay type: protein assay
[26] = solubility was determined using free base at pH 7.4; assay type: physicochemical; details: buffer
[27] = Bioavailability in rat after oral dose at 50 mg/kg free base; assay type: ADME, organism-based; details: in vivo
[28] = Pharmacokinetic parameters in dog, and clearance value reported after oral administration of 50 mg/Kg.; assay type: ADME, organism-based, Canis lupus familiaris; details: in vivo
[29] = target: Insulin-like growth factor 1 receptor (Homo sapiens, UniProt P08069); assay: Inhibition of Insulin-like growth factor I receptor at ATP <Km

Vascular endothelial growth factor receptor 2, sequence (P35968 whole entry): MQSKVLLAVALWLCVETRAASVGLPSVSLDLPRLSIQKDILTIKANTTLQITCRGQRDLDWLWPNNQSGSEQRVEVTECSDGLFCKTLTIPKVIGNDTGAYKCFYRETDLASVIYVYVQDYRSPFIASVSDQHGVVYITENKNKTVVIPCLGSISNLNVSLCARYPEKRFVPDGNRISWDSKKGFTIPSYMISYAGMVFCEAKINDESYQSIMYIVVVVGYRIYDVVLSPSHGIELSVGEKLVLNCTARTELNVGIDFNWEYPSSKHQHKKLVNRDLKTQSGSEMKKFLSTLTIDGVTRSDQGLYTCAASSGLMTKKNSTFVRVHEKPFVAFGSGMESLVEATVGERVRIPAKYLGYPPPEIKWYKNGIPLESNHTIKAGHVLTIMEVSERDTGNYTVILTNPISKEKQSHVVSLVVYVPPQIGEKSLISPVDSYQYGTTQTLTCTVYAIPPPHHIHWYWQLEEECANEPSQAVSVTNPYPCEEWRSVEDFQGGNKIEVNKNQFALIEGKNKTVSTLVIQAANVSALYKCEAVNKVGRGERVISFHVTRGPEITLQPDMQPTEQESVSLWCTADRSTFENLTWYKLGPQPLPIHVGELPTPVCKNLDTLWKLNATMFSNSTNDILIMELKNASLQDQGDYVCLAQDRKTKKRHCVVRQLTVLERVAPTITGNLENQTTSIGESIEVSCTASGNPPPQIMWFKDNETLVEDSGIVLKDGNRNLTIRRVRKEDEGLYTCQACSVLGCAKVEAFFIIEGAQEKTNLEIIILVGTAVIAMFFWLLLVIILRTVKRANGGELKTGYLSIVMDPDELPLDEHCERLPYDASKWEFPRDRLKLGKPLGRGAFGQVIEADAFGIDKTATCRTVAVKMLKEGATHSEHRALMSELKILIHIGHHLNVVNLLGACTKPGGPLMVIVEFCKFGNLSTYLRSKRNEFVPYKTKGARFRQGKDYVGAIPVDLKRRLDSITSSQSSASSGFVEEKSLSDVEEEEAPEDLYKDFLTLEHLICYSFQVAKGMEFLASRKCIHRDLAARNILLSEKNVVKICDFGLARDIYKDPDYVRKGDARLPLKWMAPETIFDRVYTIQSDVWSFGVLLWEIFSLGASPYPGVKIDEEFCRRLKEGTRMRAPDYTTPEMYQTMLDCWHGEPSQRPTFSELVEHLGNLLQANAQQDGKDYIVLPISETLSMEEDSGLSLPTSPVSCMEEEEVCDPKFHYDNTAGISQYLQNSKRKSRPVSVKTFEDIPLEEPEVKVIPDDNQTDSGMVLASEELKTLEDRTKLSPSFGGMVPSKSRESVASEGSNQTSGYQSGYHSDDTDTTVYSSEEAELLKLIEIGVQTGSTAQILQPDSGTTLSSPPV

| SMILES | IC50 [1] [nM] | IC50 [2] [nM] | IC50 [3] [nM] | IC50 [4] [nM] | IC50 [5] [nM] | IC50 (HUVEC) [nM] | other results |
| --- | --- | --- | --- | --- | --- | --- | --- |
| COc1cc2c(Nc3c(F)cc(Br)cc3F)ncnc2cc1OCC1CCNCC1 | 15 | 1900 | 800 | 70 | 450 | 3000 |  |
| COCCOc1cc2ncnc(Nc3ccc(Cl)cc3F)c2cc1OC |  |  |  | 40 | 100 | 5000 | concentration at 24 h [6]: < 100 nM; concentration at 6 h [7]: 12000 nM |
| COc1cc2c(Nc3c(F)cc(Cl)cc3F)ncnc2cc1OCC1CCN(C)CC1 | 25 | 1700 |  |  |  | > 5000 |  |
| COc1cc2/c(=N/c3ccc(Br)cc3F)nc[nH]c2cc1OCC1CCN(C)CC1 |  |  |  |  |  |  | SPB (Rattus norvegicus): 90%; SPB (Mus musculus): 96% |
| COc1cc2c(Nc3ccc(Cl)cc3F)ncnc2cc1OCCN(C)c1ccncc1 |  |  |  | 200 | 300 | 5000 | concentration at 24 h [6]: 2000 nM; concentration at 6 h [7]: 4600 nM |
| COc1cc2c(Nc3ccc(Cl)cc3F)ncnc2cc1OCCCN1CCN(C)CC1.Cl | 20 | 2100 | 600 | 50 | 75 | 5000 | solubility [10]: 60 µM; concentration at 6 h [8]: 5000 nM; concentration at 24 h [9]: 3000 nM; logD (physchem [11]): 2.4; pKa [12]: 7.9 |
| COc1cc2c(Nc3ccc(Cl)cc3F)ncnc2cc1OCCCN1CCCC1.Cl | 30 | 4200 | 200 | 8 |  | 5000 |  |
| COc1cc2c(Nc3ccc(Cl)cc3F)ncnc2cc1OCCCN1CCOCC1 |  |  |  |  |  | 2000 | solubility [10]: 20 µM (≈ 8.94 µg/mL); pKa (physchem [13]): 7.2; logD (physchem [11]): 3.4; concentration at 24 h [6]: 800 nM; concentration at 6 h [7]: 4000 nM |
| COc1cc2c(Nc3c(F)cc(Cl)cc3F)ncnc2cc1OCC1CCNCC1 | 40 | 2500 | 450 | 100 | 500 | > 1000 |  |
| COc1cc2c(Nc3ccc(Cl)cc3F)ncnc2cc1OCCN1CCOCC1 |  |  |  | 300 | 400 | 5000 | concentration at 24 h [6]: 500 nM; concentration at 6 h [7]: 12000 nM |
| COc1cc2c(Nc3ccc(Br)cc3F)ncnc2cc1OCCn1ccnn1 [ZD-4190 FREE BASE] |  |  |  |  |  |  | bioavailability [14]: < 5%; concentration at 6 h [8]: 14000 nM; IC50 [15]: > 20000 nM; fraction unbound [16]: 0.02; logD (physchem [11]): 4.6; IC50 [17]: > 20000 nM; IC50 [18]: > 10000 nM; half-life [19]: 1.1 h; fraction unbound [20]: 0.05; pKa [21]: 5.3; half-life [22]: 1.3 h; IC50 (Angiopoietin-1 receptor): > 100000 nM; IC50 [23]: > 100000 nM; concentration at 24 h [24]: 200 nM; IC50 [25]: > 10000 nM; solubility [26]: 0.7 µM (≈ 0.321 µg/mL); bioavailability [27]: > 80%; CL/F [28]: 8.33 mL/min/kg; IC50 [29]: > 20000 nM |
| COc1cc2c(Nc3ccc(C#N)cc3F)ncnc2cc1OC/C=C/CN1CCCC1 | 230 | 19000 | 3900 | 500 | 800 | 10000 |  |
| COc1cc2c(Nc3ccc(Cl)cc3F)ncnc2cc1OCC1CCNCC1.Cl | 50 | 5000 | 1000 | 60 | 300 | 5000 |  |
| COc1cc2c(Nc3ccc(C)cc3F)ncnc2cc1OCC1CCNCC1 | 30 | 12300 | 700 | 250 | 500 | > 5000 |  |
| COc1cc2c(Nc3ccc(Cl)cc3F)ncnc2cc1OC/C=C/CN1CCCC1.Cl | 40 | 1900 | 750 | 40 | 90 | 1000 |  |

Second part, led by results:

| IC50 [1] [nM] | IC50 [2] [nM] | IC50 [3] [nM] | IC50 [4] [nM] | IC50 [5] [nM] | SMILES | IC50 (HUVEC) [nM] | other results |
| --- | --- | --- | --- | --- | --- | --- | --- |
| 10 | 5000 | 500 | 40 |  | COc1cc2c(Nc3ccc(Br)cc3F)ncnc2cc1OC[C@H]1CCCN(C)C1 | 1000 |  |
| 9 | 2000 | 550 | 30 | 100 | COc1cc2c(Nc3ccc(Br)cc3F)ncnc2cc1OCCCN1CCN(C)CC1.Cl | > 1000 |  |
| 6 | 2100 |  |  |  | COc1cc2c(Nc3ccc(Br)cc3F)ncnc2cc1OCCC1CCN(C)CC1 | 3000 | concentration at 6 h [8]: 3000 nM; concentration at 24 h [9]: 2000 nM |
| 25 | 13500 | 500 | 65 | 1000 | COc1cc2c(Nc3ccc(C)cc3F)ncnc2cc1OCC1CCN(C)CC1 | > 5000 |  |
| 7 | 1500 | 25 | 30 | 300 | COc1cc2c(Nc3cc(O)c(C)cc3F)ncnc2cc1OCC1CCN(C)CC1.Cl | 800 |  |
| 30 | 8000 | 300 | 100 | 200 | COc1cc2c(Nc3ccc(Cl)cc3F)ncnc2cc1OCCN1CCN(C)CC1 | 10000 |  |
|  | 50000 | 1500 |  |  | COc1cc2c(Nc3ccc(Cl)cc3F)ncnc2cc1OC1CCN(C)CC1 |  |  |
| 15 | 4300 | 2000 | 50 |  | COc1cc2c(Nc3ccc(Cl)cc3F)ncnc2cc1OCC1CCN(C)CC1.Cl | 5000 |  |
| 8 | 2100 | 650 | 30 | 100 | COc1cc2c(Nc3ccc(Br)cc3F)ncnc2cc1OC/C=C/CN1CCCC1.Cl | 5000 |  |
| 8 | 900 | 20 | 3 | 100 | COc1cc2c(Nc3cc(O)c(Cl)cc3F)ncnc2cc1OCC1CCN(C)CC1.Cl | 500 |  |
| 40 | 2700 |  |  |  | COc1cc2c(Nc3ccc(Br)cc3F)ncnc2cc1OCCC1CCNCC1 | 3000 |  |
| 55 | 4100 | 500 | 70 | 300 | COc1cc2c(Nc3ccc(Cl)cc3F)ncnc2cc1OCCC1CCN(C)CC1 | 3000 |  |
| 10 | 1500 | 500 | 100 | 300 | COc1cc2c(Nc3c(F)cc(Br)cc3F)ncnc2cc1OCC1CCN(C)CC1 | > 1000 |  |
| 5 | 1800 | 700 | 80 | 100 | COc1cc2c(Nc3ccc(Cl)cc3F)ncnc2cc1OC[C@@H]1CCCN(C)C1 | 5000 |  |
| 1 | 1800 | 500 | 60 |  | COc1cc2c(Nc3ccc(Br)cc3F)ncnc2cc1OC[C@@H]1CCCN(C)C1 | 10000 | concentration at 6 h [8]: 5500 nM; concentration at 24 h [9]: 2500 nM |
